17 molecules from US12528813B2, “Substituted imidazo[4,5-b]pyridines as M3 receptor PAMs” (NIPPON SHINYAKU CO., LTD., priority 2019, dated 2026) can be followed below.

Structures are written as SMILES.

The subject of data set [1] is anesthetized rats. Briefly: Effect on increase in intravesical pressure induced by pelvic nerve electrical stimulation in anesthetized rats. Format: in vivo, rat. The note with it: anesthetized SD female rats; for change in vivo at 0.3 mg/kg: Rattus norvegicus, 1 h, read-out: Ratio of Change Rc of AUC of increase in intravesical pressure (maximum during 1 hour after administration); for change in vivo at 0.3 mg/kg / Ratio of Change Rc of AUC of increase in intravesical pressure (maximum during 1 hour after administration): test compound 0.3 mg/kg intravenous, single dose. The procedure: As the action of nerve stimulation-dependent bladder contraction in vivo, the action of the test compound on increase in intravesical pressure induced by pelvic nerve electrical stimulation using rats was measured by the following method.
SD female rats (Japan SLC, Inc.) were anesthetized by subcutaneously administering 1200 mg/kg of urethane (manufactured by Fujifilm Wako Pure Chemical Industries, Ltd.), and then the lower abdomen of each rat was incised at the midline. After the ureters on both sides were ligated and cut, a cannula for measuring intravesical pressure (PE-60, manufactured by BECTON DICKINSON) was inserted into the bladder through the external urethral orifice and fixed with sutures. After about 200 μL of saline was injected via the cannula inserted into the bladder, the other end of the cannula was connected to a pressure transducer to measure intravesical pressure.
The pelvic nerve near the bladder of the rat was separated under stereomicroscope observation and an electrode for nerve stimulation (K2-14015M-PT, manufactured by BrainScience idea. Co., Ltd.) was attached. The peritoneal cavity of the rat was filled with liquid paraffin (26114-75, NACALAI TESQUE, INC.). After the postoperative rest period, the pelvic nerve was electrically stimulated to cause an increase in intravesical pressure, using an electrical stimulator (SEN-7203, manufactured by NIHON KOHDEN CORPORATION). At this time, the stimulation frequency was set to 8 Hz, the pulse width was set to 0.3 ms, and the stimulation time was set to 10 seconds. The voltage of the electrical stimulator was adjusted such that the increase in intravesical pressure was about 50% to 70% of that at stimulation with 10 V.
Then, the electric stimulation was repeated at an interval of 10 minutes. After the increase in intravesical pressure induced by electric stimulation was stabilized three times or more, a test compound (dosage 0.3 mg/kg), distigmine bromide (dosage 0.03, 0.1 mg/kg), or a vehicle was intravenously administered at a single dosage of 1.0 mL/kg via a catheter placed into a femoral vein, and the effect of the test compound on increase in intravesical pressure was measured for 1 hour. Saline was used as a vehicle, and the test compound was dissolved in dimethylsulfoxide and then added to the vehicle. At this time, the final concentration of dimethylsulfoxide was set to 10%.
The response data (intravesical pressure) were imported to a personal computer via a data collection and analysis system (PowerLab (registered trademark), manufactured by ADInstruments) and analyzed using analysis software (LabChart (registered trademark), manufactured by ADInstruments). For each electric stimulation, AUC of the increase in intravesical pressure (area under the curve of plot of intravesical pressure) was calculated, and a ratio of change Rc (unit: %) with respect to the value (AUC) before administering the test compound was calculated according to the following equation (2). In the equation (2), Ab denotes AUC before administering the test compound, and Aa denotes AUC after administering the test compound. In addition, the maximum effect observed during 1 hour after administering the test compound (maximum ratio of change Rc) was defined as the effect of the test compound. The higher the ratio of change Rc, the higher the effect of enhancing bladder contraction force and the higher the effect of increasing intravesical pressure. Rc=100×(Aa−Ab)/Ab (2)

The subject of data set [2] is anesthetized rats. The data set is described as above. It is filed as in vivo, rat. The note with it: intravenous, 0.1 mg/kg.

On to `COCC1(CN(C)c2cc(-c3cnc(C4CC4)c(C(F)(F)F)c3)nc3nc(NC(=O)c4cn(CCCC(=O)O)cn4)[nH]c23)CCCC1` [Example 7, 4-[4-({5-[6-Cyclopropyl-5-(trifluoromethyl)pyridin-3-yl]-7-({[1-(methoxymethyl)cyclopentyl]methyl}(methyl)amino)-1H-imidazo[4,5-b]pyridin-2-yl}carbamoyl)-1H-imidazol-1-yl]butanoic acid], for which the change in vivo at 0.3 mg/kg in data set [1] turned out to be 41.8%.

Consider `CCOc1cc(-c2cc(N(C)CC3(COC)CCCC3)c3[nH]c(NC(=O)c4ccc(CCC(=O)O)cn4)nc3n2)cc(C(F)(F)F)n1` [Example 2, 3-[6-({5-[2-Ethoxy-6-(trifluoromethyl)pyridin-4-yl]-7-({[1-(methoxymethyl)cyclopentyl]methyl}(methyl)amino)-1H-imidazo[4,5-b]pyridin-2-yl}carbamoyl)pyridin-3-yl]propanoic acid], for which, in data set [1], the change in vivo at 0.3 mg/kg was found to be 36.5%.

Take `CCOc1ncc(-c2cc(N(C)CC3(COC)CCCCC3)c3[nH]c(NC(=O)c4ccc(CCCC(=O)O)cn4)nc3n2)cc1C(F)(F)F` [Example 14, 4-[6-({5-[6-Ethoxy-5-(trifluoromethyl)pyridin-3-yl]-7-({[1-(methoxymethyl)cyclohexyl]methyl}(methyl)amino)-1H-imidazo[4,5-b]pyridin-2-yl}carbamoyl)pyridin-3-yl]butanoic acid]: the change in vivo at 0.3 mg/kg in data set [1] was 70.4%.

Take `CCOc1ncc(-c2cc(N(C)CC3(COC)CCCC3)c3[nH]c(NC(=O)c4ccc(CCCC(=O)O)cn4)nc3n2)cc1C(F)(F)F` [Example 12, 4-[6-({5-[6-Ethoxy-5-(trifluoromethyl)pyridin-3-yl]-7-({[1-(methoxymethyl)cyclopentyl]methyl}(methyl)amino)-1H-imidazo[4,5-b]pyridin-2-yl}carbamoyl)pyridin-3-yl]butanoic acid]: in data set [1], the change in vivo at 0.3 mg/kg was determined as 53.4%.

With `CN(CCCCCCN(C)C(=O)Oc1ccc[n+](C)c1)C(=O)Oc1ccc[n+](C)c1` [distigmine bromide, reference compound], in data set [1] (intravenous, test compound 0.3 mg/kg, distigmine bromide 0.03, 0.1 mg/kg), the “effect of enhancing bladder contraction force” value is listed as “exhibited an effect of enhancing bladder contraction force”. In addition, the “nicotinic side effect (fasciculation)” value in data set [2] was “a nicotinic side effect (fasciculation) was observed”.

On to `CCOc1ncc(-c2cc(N(C)CC3(COC)CCCCC3)c3[nH]c(NC(=O)c4ccc(CCC(=O)O)cn4)nc3n2)cc1C(F)(F)F` [Example 13], for which, in data set [1], the change in vivo at 0.3 mg/kg was found to be 113%.

With `COCC1(CN(C)c2cc(-c3cnc(C4CC4)c(C(F)(F)F)c3)nc3nc(NC(=O)c4ccc(CC(C)C(=O)O)cn4)[nH]c23)CCCC1` (stereo not drawn) [Example 4, 3-[6-({5-[6-Cyclopropyl-5-(trifluoromethyl)pyridin-3-yl]-7-({[1-(methoxymethyl)cyclopentyl]methyl}(methyl)amino)-1H-imidazo[4,5-b]pyridin-2-yl}carbamoyl)pyridin-3-yl]-2-methylpropanoic acid], the change in vivo at 0.3 mg/kg in data set [1] turned out to be 89.5%.

As to `COCC1(CN(C)c2cc(-c3cnc(C4CC4)c(C(F)(F)F)c3)nc3nc(NC(=O)c4ccc(CCCC(=O)O)cn4)[nH]c23)CCCC1` [Example 8, 4-[6-({5-[6-Cyclopropyl-5-(trifluoromethyl)pyridin-3-yl]-7-({[1-(methoxymethyl)cyclopentyl]methyl}(methyl)amino)-1H-imidazo[4,5-b]pyridin-2-yl}carbamoyl)pyridin-3-yl]butanoic acid], the change in vivo at 0.3 mg/kg in data set [1] was 85.7%.

For `CCOc1cc(-c2cc(N(C)CC3(COC)CCCC3)c3[nH]c(NC(=O)c4cc5c(cn4)CN(CCC(=O)O)CC5)nc3n2)cc(C(F)(F)F)n1` [Example 9], the change in vivo at 0.3 mg/kg in data set [1] turned out to be 44%.

With `COCC1(CN(C)c2cc(-c3cc(C4CC4)nc(C(F)(F)F)c3)nc3nc(NC(=O)c4cc5c(cn4)CN(CCC(=O)O)CC5)[nH]c23)CCCC1` [Example 10, 3-[6-({5-[2-Cyclopropyl-6-(trifluoromethyl)pyridin-4-yl]-7-({[1-(methoxymethyl)cyclopentyl]methyl}(methyl)amino)-1H-imidazo[4,5-b]pyridin-2-yl}carbamoyl)-1,2,3,4-tetrahydro-2,7-naphthyridin-2-yl]propanoic acid], in data set [1], the change in vivo at 0.3 mg/kg stood at 33.7%.

As for `COCC1(CN(C)c2cc(-c3cnc(C4CC4)c(C(F)(F)F)c3)nc3nc(NC(=O)c4cn5c(n4)CCC(C(=O)O)C5)[nH]c23)CCCC1` (stereo not drawn) [Example 5, 2-({5-[6-Cyclopropyl-5-(trifluoromethyl)pyridin-3-yl]-7-({[1-(methoxymethyl)cyclopentyl]methyl}(methyl)amino)-1H-imidazo[4,5-b]pyridin-2-yl}carbamoyl)-5,6,7,8-tetrahydroimidazo[1,2-a]pyridine-6-carboxylic acid], the change in vivo at 0.3 mg/kg in data set [1] was 49.1%.

Turning to `COCC1(CN(C)c2cc(-c3cnc(C4CC4)c(C(F)(F)F)c3)nc3nc(NC(=O)c4ccc(CCC(=O)O)cn4)[nH]c23)CCCC1` [Example 1, 3-[6-({5-[6-Cyclopropyl-5-(trifluoromethyl)pyridin-3-yl]-7-({[1-(methoxymethyl)cyclopentyl]methyl}(methyl)amino)-1H-imidazo[4,5-b]pyridin-2-yl}carbamoyl)pyridin-3-yl]propanoic acid], the change in vivo at 0.3 mg/kg in data set [1] was determined as 55.3%.

`COCC1(CN(C)c2cc(-c3cnc(C4CC4)c(C(F)(F)F)c3)nc3nc(NC(=O)c4ccc(CN(C)CC(=O)O)cn4)[nH]c23)CCCC1` [Example 6]: the change in vivo at 0.3 mg/kg in data set [1] was 55.1%.

As to `COCC1(CN(C)c2cc(-c3cnc(C4CC4)c(C(F)(F)F)c3)nc3nc(NC(=O)c4ccc(C5CC5C(=O)O)cn4)[nH]c23)CCCC1` (stereo not drawn) [Compound 49], the “Ratio of Change Rc of AUC of increase in intravesical pressure (maximum during 1 hour after administration)” value in data set [1] was found to be 43.6%.

As to `COCC1(CN(C)c2cc(-c3cnc(C4CC4)c(C(F)(F)F)c3)nc3nc(NC(=O)c4ccc(CCCC(=O)O)cn4)[nH]c23)CCCCC1` [Example 11, 4-[6-({5-[6-Cyclopropyl-5-(trifluoromethyl)pyridin-3-yl]-7-({[1-(methoxymethyl)cyclohexyl]methyl}(methyl)amino)-1H-imidazo[4,5-b]pyridin-2-yl}carbamoyl)pyridin-3-yl]butanoic acid], the change in vivo at 0.3 mg/kg in data set [1] stood at 80.7%.

`COCC1(CN(C)c2cc(-c3cc(C4CC4)nc(C(F)(F)F)c3)nc3nc(NC(=O)c4ccc(CCC(=O)O)cn4)[nH]c23)CCCC1` [Example 3, 3-[6-({5-[2-Cyclopropyl-6-(trifluoromethyl)pyridin-4-yl]-7-({[1-(methoxymethyl)cyclopentyl]methyl}(methyl)amino)-1H-imidazo[4,5-b]pyridin-2-yl}carbamoyl)pyridin-3-yl]propanoic acid]: the change in vivo at 0.3 mg/kg in data set [1] was 28.5%.

As to `COCC1(CN(C)c2cc(-c3cnc(C4CC4)c(C(F)(F)F)c3)nc3nc(NC(=O)c4cn(C[C@@H](C)C(=O)O)cn4)[nH]c23)CCCC1` [Compound 53], the “Ratio of Change Rc of AUC of increase in intravesical pressure (maximum during 1 hour after administration)” value in data set [1] turned out to be 50.2%.
